One experiment has as its system NF54^WT parasites. The experiment in a line: microbe, parasite or virus in culture. Type of experiment: cell-based, Plasmodium falciparum. The procedure, abridged:
(§1)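 Predominantly ring-stage cultures at 0.3% parasitaemia, 1% haematocrit, in medium with 10% O+ human serum; compound exposure 72 h, DMSO <0.5% (v/v). Live parasites counted by flow cytometry with SYBR Green I and 200 nM MitoTracker Deep Red. IC50/IC90 from linear interpolation of dose-response data.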

The next experiment concerns NF54^G358S-2 parasites. The experiment in a line: P. falciparum proliferation assay (72 h, flow cytometry, SYBR Green I/MitoTracker). It is filed as cell-based, Plasmodium falciparum. In a few lines: as §1
(In general: A flow cytometer gives signals particle by particle.)

For experiment [1], the target named is T1, PfATP4^G358S (membranes from Dd2-Polδ-PfATP4^G358S parasites) (Plasmodium falciparum, UniProt A0A143ZZK9, G358S).
T1 sequence (A0A143ZZK9 1-1264 G358S): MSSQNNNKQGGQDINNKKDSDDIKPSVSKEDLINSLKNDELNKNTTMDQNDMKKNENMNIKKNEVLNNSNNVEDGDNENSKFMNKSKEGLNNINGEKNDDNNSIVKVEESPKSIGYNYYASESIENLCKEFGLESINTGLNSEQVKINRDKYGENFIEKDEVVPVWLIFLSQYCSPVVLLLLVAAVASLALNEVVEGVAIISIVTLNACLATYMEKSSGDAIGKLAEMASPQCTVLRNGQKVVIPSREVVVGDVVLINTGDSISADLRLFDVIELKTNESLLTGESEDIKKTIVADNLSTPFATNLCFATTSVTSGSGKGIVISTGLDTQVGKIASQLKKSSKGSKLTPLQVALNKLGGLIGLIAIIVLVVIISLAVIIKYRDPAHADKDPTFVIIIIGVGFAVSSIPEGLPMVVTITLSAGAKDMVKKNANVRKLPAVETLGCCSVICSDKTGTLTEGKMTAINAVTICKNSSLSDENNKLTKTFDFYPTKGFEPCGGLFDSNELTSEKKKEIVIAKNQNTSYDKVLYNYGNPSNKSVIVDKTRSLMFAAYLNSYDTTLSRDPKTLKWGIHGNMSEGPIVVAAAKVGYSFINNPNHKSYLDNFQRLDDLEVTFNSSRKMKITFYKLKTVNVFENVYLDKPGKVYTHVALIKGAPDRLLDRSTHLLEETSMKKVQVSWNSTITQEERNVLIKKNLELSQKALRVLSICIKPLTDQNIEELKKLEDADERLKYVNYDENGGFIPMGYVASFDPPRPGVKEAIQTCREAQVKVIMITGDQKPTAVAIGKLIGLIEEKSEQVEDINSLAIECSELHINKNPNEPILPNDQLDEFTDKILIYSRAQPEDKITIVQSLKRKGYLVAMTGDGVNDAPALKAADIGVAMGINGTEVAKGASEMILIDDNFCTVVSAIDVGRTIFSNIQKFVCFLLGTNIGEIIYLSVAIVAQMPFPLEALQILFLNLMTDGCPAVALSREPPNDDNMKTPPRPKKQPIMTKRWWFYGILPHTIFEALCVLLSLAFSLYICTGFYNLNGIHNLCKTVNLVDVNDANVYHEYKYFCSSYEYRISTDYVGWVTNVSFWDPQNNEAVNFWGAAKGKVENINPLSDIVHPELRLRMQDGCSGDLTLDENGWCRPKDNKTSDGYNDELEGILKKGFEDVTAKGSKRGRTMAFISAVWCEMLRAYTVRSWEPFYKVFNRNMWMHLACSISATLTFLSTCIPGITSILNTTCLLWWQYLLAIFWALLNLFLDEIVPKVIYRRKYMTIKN
Briefly: Membrane ATPase assay, ATP4-associated (Na+-dependent) ATPase activity. Type of experiment: biochemical. Details: IC50 for inhibition of ATP4-associated ATPase activity, MEAN / IC50 for inhibition of ATP4-associated ATPase activity: unit: nM. The method, then: Membranes from isolated P. falciparum or extracellular T. gondii parasites were prepared by lysing parasites in ice-cold deionized water containing a 1:500 dilution of Protease Inhibitor Cocktail Set III (Merck Millipore), then washing the membrane preparation three times in ice-cold deionized water (with protease inhibitors present for the first two washes)[15]. Protein concentrations in the membrane preparations were measured using a Bradford assay. The PiColorLock Gold Phosphate Detection System (Innova Biosciences) was used to measure the production of Pi from hydrolysis of ATP[15]. Membrane preparations were diluted in either a high Na^+ solution (yielding final conditions in the reactions of 150 mM NaCl, 20 mM KCl, 2 mM MgCl2, 50 mM Tris, pH 7.2) or a Na^+-free solution (yielding final conditions of 150 mM choline chloride, 20 mM KCl, 2 mM MgCl2, 50 mM Tris, pH 7.2) to achieve a total protein concentration of 50 μg/mL. […] The reactions were performed at 37 °C, and were initiated by the addition of 1 mM ATP (Na2ATP۰3H2O; MP Biomedicals) and terminated 10 min later by adding 100 μL of reaction mixture (in duplicate) to 25 μL “Gold mix” in a 96-well plate. […] Background values (averaged from wells containing all components, but to which ATP was not added until after the membrane was exposed to Gold mix) were subtracted from the data. For each treatment, the ATPase activity associated with the (Na^+-dependent) PfATP4 and TgATP4 proteins was calculated by subtracting data obtained in the low Na^+ condition (containing only the 2 mM Na^+ introduced on addition of 1 mM Na2ATP) from that obtained in the high Na^+ condition.

Where “and” joins values, the source holds several entries; their conditions need not be identical. Equal values may be shown once. Read-outs that look alike come from different tables or passages of the source.

Regarding `C[C@H]1Cc2c([nH]c3cc(Cl)c(F)cc23)[C@@]2(N1)C(=O)Nc1ccc(Cl)cc12` [Cipargamin], the IC90 (as a rule, the concentration at which the effect reaches the 90% level) in the experiment on NF54^WT parasites (NF54WT parasites, individual experiments, read-out: IC90 values) is 0.0046 µM and 0.0035 µM; with NF54^WT parasites (Plasmodium falciparum, NF54, NF54WT parasites, individual experiments, read-out: IC90 values) it was 0.0036 µM; with NF54^WT parasites (Plasmodium falciparum, NF54, NF54WT parasites, mean of the experiments, read-out: IC90 values, MEAN) it was 0.0038 µM; in the experiment on NF54^G358S-2 parasites (NF54G358S-2 parasites, individual experiments, read-out: IC90 values) it was 3.35 µM and 3.42 µM and 3.53 µM; with NF54^G358S-2 parasites (Plasmodium falciparum, NF54, NF54G358S-2, 10% human serum, read-out: IC90 ± SEM) it was 3.43 ± 0.0367 µM; in the experiment with NF54^G358S-2 parasites (Plasmodium falciparum, NF54, NF54G358S-2 parasites, individual experiments, read-out: IC90 values), 3.43 µM. In the experiment on NF54^G358S-2 parasites (Plasmodium falciparum, NF54, NF54G358S-2 parasites, mean of the experiments, read-out: IC90 values, MEAN), the IC90 was determined as 3.43 µM. Also, the “FC (IC50)” value came out at 1.0 fold in the experiment with NF54^WT parasites (NF54WT, reference line) and 751.9 fold in the experiment on NF54^G358S-2 parasites (NF54G358S-2 compared to NF54WT). The “FC (IC90)” value in the experiment with NF54^WT parasites (NF54WT, reference line) is 1.0 fold; in the experiment on NF54^G358S-2 parasites (NF54G358S-2 compared to NF54WT) it was 903.4 fold. Moreover, the IC50 (in general, the concentration at which inhibition is half-maximal) in the experiment with NF54^WT parasites (NF54WT, single experiments, source data of Fig. 2 (nM in Supplementary Table 5), read-out: IC50 values) is 2.8 nM and 2.5 nM and 2.6 nM; in the experiment with NF54^WT parasites (Plasmodium falciparum, NF54, NF54WT, MEAN, source data of Fig. 2, read-out: IC50 values, MEAN), 2.64 nM; in the experiment on NF54^WT parasites (Plasmodium falciparum, NF54, NF54WT, single experiments, source data of Fig. 2 (nM in Supplementary Table 5), read-out: IC50 values) it was 2.7 nM; with NF54^G358S-2 parasites (NF54G358S-2, single experiments, source data of Fig. 2 (nM in Supplementary Table 5), read-out: IC50 values), 1750 nM and 2010 nM and 2430 nM; in the experiment on NF54^G358S-2 parasites (Plasmodium falciparum, NF54, NF54G358S-2, MEAN, source data of Fig. 2, read-out: IC50 values, MEAN), 1980 nM; with NF54^G358S-2 parasites (Plasmodium falciparum, NF54, NF54G358S-2, single experiments, source data of Fig. 2 (nM in Supplementary Table 5), read-out: IC50 values) it was 1750 nM. Moreover, in experiment [1] (Dd2-Polδ-PfATP4G358S membranes, MEAN, source data of Table 1 (nM there)), the “IC50 for inhibition of ATP4-associated ATPase activity, MEAN” value is given as 99.4. Moreover, in experiment [1] (membranes from Dd2-Polδ-PfATP4G358S, mean ± SEM), the “IC50 for ATP4-associated ATPase activity” value was 99 ± 21 (4) (P = 0.004) nM.

(Values after paper PMC9525273 (Nature Communications, 2022).)
